Assay results taken from the supplement of paper PMC10307832.

Assays:
Assay in all cases: relative viability (nuclei count vs DMSO), 5 days (fraction); higher = more cells survive
[1] = compound: C1CSC2=C(C(=O)N1)SC3=C2C=C(C=C3)O [kb NB 142-70] + Nc1nc2[nH]cc(CCc3ccc(C(=O)N[C@@H](CCC(=O)O)C(=O)O)cc3)c2c(=O)[nH]1 [Pemetrexed] (partner 0.2 µM)
How it was run: (§1)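 Each reported value is a median over duplicate plates. It expresses relative viability: treated-well nuclei count divided by vehicle-well nuclei count. Lung cancer cell lines in 1536-well plates were dosed by pin tool a day after seeding, alone with one drug or with a fixed anchor-drug dose plus five library-drug doses (not always all listed) in √10 steps, and nuclei were counted after 5 days.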

[2] = compound: NCC(=O)Nc1ccc(-n2nc(C(F)(F)F)cc2-c2ccc3c(ccc4ccccc43)c2)cc1 + C[C@]1(O)C[C@@H](c2nc(-c3ccc4ccc(-c5ccccc5)nc4c3)c3c(N)nccn32)C1 [Linsitinib] (partner 1 µM)
How it was run: as §1

[3] = compound: C1CSC2=C(C(=O)N1)SC3=C2C=C(C=C3)O [kb NB 142-70] + O=C(c1cc(Cc2n[nH]c(=O)c3ccccc23)ccc1F)N1CCN(C(=O)C2CC2)CC1 [Olaparib] (partner 8 µM)
How it was run: as §1

[4] = compound: C1CSC2=C(C(=O)N1)SC3=C2C=C(C=C3)O [kb NB 142-70] + Cc1nc(NC(=O)N2CCC[C@H]2C(N)=O)sc1-c1ccnc(C(C)(C)C(F)(F)F)c1 [Alpelisib] (partner 2 µM)
How it was run: as §1

[5] = compound: NCC(=O)Nc1ccc(-n2nc(C(F)(F)F)cc2-c2ccc3c(ccc4ccccc43)c2)cc1 + CC(C)C[C@H](NC(=O)[C@H](Cc1ccccc1)NC(=O)c1cnccn1)B(O)O [Bortezomib] (partner 0.002 µM)
How it was run: as §1

Cell Line	relative viability ([1]; first compound 0.1 µM)	relative viability ([1]; first compound 1 µM)	relative viability ([1]; first compound 3.162 µM)	relative viability ([2]; first compound 0.02 µM)	relative viability ([2]; first compound 0.06325 µM)	relative viability ([2]; first compound 0.2 µM)	relative viability ([2]; first compound 0.6325 µM)	relative viability ([2]; first compound 2 µM)	relative viability ([3]; first compound 0.1 µM)	relative viability ([3]; first compound 1 µM)	relative viability ([3]; first compound 3.162 µM)	relative viability ([4]; first compound 0.1 µM)	relative viability ([4]; first compound 1 µM)	relative viability ([4]; first compound 3.162 µM)	relative viability ([5]; first compound 0.02 µM)	relative viability ([5]; first compound 0.06325 µM)	relative viability ([5]; first compound 0.2 µM)	relative viability ([5]; first compound 0.6325 µM)	relative viability ([5]; first compound 2 µM)
NCI-H1915	0.462	0.532	0.474	1.05	1.07	1.17	1.09	1.1	0.286	0.236	0.145	1.07	1.08	0.648	0.889	1.01	0.964	0.932	1.03
NCI-H596	0.484	0.507	0.461	1.05	1.06	0.989	1.02	1.04	0.658	0.579	0.788	0.454	0.483	0.347	1.27	1.1	0.883	1.96	1.05
NCI-H322M	0.614	0.631	0.45	1.04	0.916	0.924	0.884	0.976	0.777	0.795	0.621	0.813	0.815	0.882	1.41	1.29	1.15	1.18	1.14
NCI-H2228	0.375	0.376	0.24	0.872	0.676	0.707	0.603	0.79	0.694	0.587	0.362	0.7	0.729	0.494	0.749	0.935	1.01	1.38	0.914
NCI-H647	0.186	0.192	0.178	1.23	1.25	1.12	1.31	0.915	0.549	0.495	0.539	1.1	1.43	0.698	1.14	1.18	1.09	1.04	0.99
NCI-H2085	0.866	0.947	0.792	0.964	0.943	1.03	1.03	0.932	0.742	0.727	0.487	0.869	0.901	0.658	1.09	1.05	1.03	1	1.07
SW 1573	0.81	0.744	0.36	0.851	0.748	0.863	0.846	0.789	0.421	0.305	0.177	0.86	0.549	0.529	1.16	1.28	1.05	0.894	1.02
NCI-H441	0.269	0.248	0.196	0.634	0.486	0.509	0.657	0.668	0.631	0.533	0.22	0.92	0.62	0.484	0.931	0.481	0.308	0.409	0.361
LOU-NH91	0.432	0.462	0.386	0.984	1.04	0.891	0.959	1.09	0.879	0.917	0.552	0.705	0.675	0.492	0.485	0.523	0.485	0.511	0.484
NCI-H3122	0.2	0.21	0.289	1.06	1.09	1.03	1.04	1.04	0.648	0.714	0.793	0.828	0.7	0.442	1.02	1.02	0.984	1	1.05
NCI-H460	0.058	0.0629	0.0654	0.823	0.757	0.855	0.717	0.738	0.396	0.509	0.526	0.521	0.435	0.244	1.21	1.11	1.07	1.03	1.07
NCI-H650	1.07	1.03	0.843	0.638	1.01	1.02	0.862	1.08	0.417	0.374	0.267	1.13	1.19	0.942	0.663	1.02	0.931	0.677	0.907
NCI-H661	0.967	0.867	0.856	0.573	0.584	0.582	0.496	0.566	0.731	0.733	0.759	0.812	0.526	0.613	0.785	0.853	0.737	0.784	0.762
NCI-H1734	0.395	0.369	0.376	0.916	0.856	0.988	0.823	0.925	0.586	0.509	0.304	0.659	0.607	0.46	1.1	0.957	0.886	1.02	0.891
LXF-289	0.86	0.989	0.715	0.924	0.995	0.989	0.985	0.901	1.04	1.05	0.772	1.03	1.02	0.917	1.05	1.1	0.966	1.02	1.01
H3255	0.572	0.568	0.58	0.916	0.945	0.958	0.961	0.919	0.559	0.577	0.604	0.621	0.754	0.768	0.87	1.12	0.846	0.791	0.876
201T	0.315	0.349	0.318	0.957	1.01	1.09	1.09	1.04	0.828	0.87	0.85	1.01	1.02	1	1.04	1.18	1.03	1.17	1.09
NCI-H2126	0.666	0.702	0.762	0.7	0.745	0.687	0.664	0.763	0.928	0.899	0.816	0.748	0.763	0.758	1.12	1.15	1.15	1.13	1.14
HOP-62	0.3	0.361	0.388	1.14	0.901	0.854	1.03	1.05	0.457	0.39	0.333	1.18	0.777	0.937	0.828	0.859	0.728	0.339	1.02
CAL-12T	1.11	1.34	1.27	0.718	0.836	0.865	0.775	0.819	0.7	0.691	0.677	1.22	1.5	0.644	0.899	1.09	0.967	0.931	1.11
NCI-H520	0.765	0.667	0.375	1.02	0.904	1.07	0.91	1.13	0.377	0.35	0.228	0.728	0.961	0.513	0.646	0.568	1.05	0.671	0.789
NCI-H1755	0.43	0.403	0.519	1.08	1.01	0.98	0.991	0.995	0.934	0.809	0.883	0.968	0.915	0.929	0.892	0.935	0.958	0.946	0.978
NCI-H2023	0.253	0.283	0.221	0.805	0.682	0.712	0.623	0.707	0.51	0.504	0.312	0.619	0.602	0.531	0.993	1.13	0.724	0.932	0.904
NCI-H2009	1.05	1.09	0.977	1.22	1.18	1.23	1.21	1.12	0.721	0.724	0.611	1.04	1.2	0.72	0.911	1.05	0.825	0.963	1.08
